Experimental data: US20030212109A1, “Pharmaceutical compositions and their use” (priority 2000, published 2003)

Tests used:
5-HT concentrations [1] = assay: Brain microdialysis, acute oral administration; 5-HT in perfusate by HPLC with electrochemical detection; assay type: in vivo; details: brain dialysate
Procedure: (§1) Animals with dialysis probes inserted in brain regions were placed in the dialysis apparatus and the probes perfused with artificial cerebrospinal fluid. Samples of perfusate were collected every 20 minutes after an initial 30 minute washout period. Basal samples were collected for 2 hours before administration of drug or vehicle by the oral route. Further samples were collected for up to 4 hours post drug administration. Samples were analysed for 5-HT by HPLC with electrochemical detection.
Data was expressed as a percentage of a pre-injection control, obtained by averaging the last three samples prior to drug/vehicle administration. Transformed data (natural log of percentages) was analysed by ANOVA with repeated measures.

5-HT concentrations [2] = assay: Brain microdialysis after chronic (21 day) administration; 5-HT in perfusate; assay type: in vivo; details: 10 mg/kg, percentage increase over vehicle treated controls
Procedure: as §1
The method differed from that for acute administration in that animals were treated with fluoxetine or vehicle for 21 days prior to placement in the dialysis apparatus. The subsequent manipulations were as described above. The 5-HT concentration in the treated group was expressed as the percentage increase over vehicle treated controls.

| SMILES | % increase in 5-HT concentrations (5-HT concentrations [1]; 10 or 20 mg/kg, oral (maximum possible response)) | % increase in 5-HT concentrations (5-HT concentrations [2]) | % increase in 5-HT concentrations (5-HT concentrations [1]; 10 mg/kg, oral) |
| --- | --- | --- | --- |
| CNCCC(Oc1ccc(C(F)(F)F)cc1)c1ccccc1 (stereo not drawn) [Fluoxetine, N-methyl-3-(p-trifluoromethylphenoxy)-3-phenylpropylamine] | 99% | 184% |  |
| CC1(C)C(=O)N(CCN2CCC(C(=O)c3ccc(F)cc3)CC2)c2ccccc21.Cl [Compound of formula (I), 1-[2-[4-(4-fluorobenzoyl)-1-piperidinyl]ethyl]-1,3-dihydro-3,3-dimethyl-2H-indol-2-one, monohydrochloride] |  |  | 110% |
